Assay: aqueous solubility in buffer
Format: physicochemical
Settings: buffer of pH 6.5 (close to the pH of the intestine)
Procedure: However, like many other HIV protease inhibitors, these compounds are characteristically lipophilic and thus poorly water soluble. For example, the compound of formula I has an aqueous solubility about 1 μg/ml in the buffer of pH 6.5 (close to the pH of the intestine), which is considered as extremely poor aqueous solubility and would be expected to provide very low oral bioavailability in the free acid form.

SMILES: CCC[C@@]1(CCc2ccccc2)CC(O)=C([C@H](CC)c2cccc(NS(=O)(=O)c3ccc(C(F)(F)F)cn3)c2)C(=O)O1 [compound of formula I]
- solubility: ~1 µg/mL
